{"source": "patent US6821442B1", "about": "“Method and apparatus for control of aquatic vertebrate and invertebrate invasive species” (priority 2002, dated 2004)", "key": {"[1]": {"system": "Asian clam (Corbicula fluminea)", "experiment": "LT50 of Asian clam exposed to supersaturated gas, standard laboratory methods (APHA 1995)", "format": "in vivo", "from_the_text": "Gas supersaturation (ΔP>0) with CO2, air or combustion off-gas is established and maintained for a time period shown to cause a selected mortality rate within the population of the target species. We have established LT50 values (LT50 is defined as the time to kill 50 per cent of a targeted species) for the Asian clam (Corbicula fluminea) exposed to elevated concentrations of carbon dioxide and a simulated combustion gas mixture ([…]; N2=85.7%; CO2=13.6%; SO2=0.284%). The LT50 values were established using standard laboratory methods (APHA 1995). With carbon dioxide exposure, LT50 was described by the model (R^2=0.86):\nLT50 values decreased from a high of 270 min at 260 mm Hg PCO2 to a low of 90 min at 2070 mm Hg gage pressure. This later value represents a 27 fold decrease in LT50 below that established by McMahon et al (1995) at a PCO2 of 760 mm Hg (absolute pressure). Combustion gas requires longer exposure periods given a lower XCO2. The LT50 at a operating pressure of 2070 mm Hg is about 350 min. […] Lower levels of LT50 are anticipated for fish and other aquatic exotics of concern."}, "Asian clams": {"system": "Asian clams", "details": "cited from earlier work"}, "zebra mussels [2]": {"system": "zebra mussels", "details": "cited from earlier work"}, "zebra mussels [3]": {"system": "zebra mussels", "details": "25° C., cited from earlier work"}}, "note": "Read-outs that look alike come from different tables or passages of the source.", "data": [{"smiles": "O=C=O", "note": "[carbon dioxide]", "values": [{"measurement": "LT50", "setting": "[1]; 260 mm Hg PCO2, Asian clam", "value": 270, "unit": "min"}, {"measurement": "fold decrease in LT50 below that of McMahon et al at PCO2 760 mm Hg (absolute pressure)", "setting": "[1]; 2070 mm Hg gage pressure", "value": 27, "unit": "fold"}, {"measurement": "LT50", "setting": "[1]; 2070 mm Hg gage pressure, Asian clam", "value": 90, "unit": "min"}, {"measurement": "concentration causing toxicity", "setting": "Asian clams", "value": 500, "unit": "mg/L"}, {"measurement": "concentration inducing a narcotizing effect", "setting": "Asian clams", "value": 100, "unit": "mg/L"}, {"measurement": "LC50", "setting": "zebra mussels [2]; 48 h, 18° C.", "value": 196, "unit": "µg/mL"}, {"measurement": "LC50", "setting": "zebra mussels [2]; 48 h, 22° C.", "value": 290, "unit": "µg/mL"}, {"measurement": "LC50", "setting": "zebra mussels [2]; 96 h, 18° C.", "value": 74, "unit": "µg/mL"}, {"measurement": "LC50", "setting": "zebra mussels [2]; 96 h, 22° C.", "value": 81, "unit": "µg/mL"}, {"measurement": "exposure period after which sub-lethal narcotizing effects (gaping response) were induced", "setting": "zebra mussels [2]", "value": 4, "unit": "h"}, {"measurement": "LT50", "setting": "zebra mussels [3]; PCO2 75 torr, zebra mussels", "value": 78, "unit": "h"}, {"measurement": "mortality", "setting": "zebra mussels [3]; PCO2 75 torr, zebra mussels", "value": "complete mortality"}, {"measurement": "effect on byssal threads", "setting": "zebra mussels [3]; PCO2 of 38 torr", "value": "detachment of byssal threads and inhibition of byssal thread formation"}]}]}
